We go through three compounds from PMC4138991, “Building a Better Dynasore: The Dyngo Compounds Potently Inhibit Dynamin and Endocytosis” (Traffic (Copenhagen, Denmark), 2013).

Series [1] has as its system mitochondria in HeLa cells. The series can be described thus: Mitotracker labeling of mitochondria, live confocal imaging. The note with it: 30 μM 4a, 30 μM 6a or 100 μM dynasore, 30 min. In kind it is cell-based. An excerpt: Dynasore was originally reported to inhibit the GTPase activity of dynamin‐like protein 1 (Dlp‐1), which is involved in mitochondrial fission. This raises the possibility that dynasore and the Dyngo compounds may affect mitochondrial morphology and/or dynamics in cells. We investigated this by labeling mitochondria in live HeLa cells using Mitotracker Green FM and imaging the cells over time using confocal microscopy. These cells stably expressed an mCherry‐conjugated form of the nuclear histone protein H2B, providing contrast to the green mitochondria.
HeLa cells were used that had been stably transduced to express H2B-mCherry. Cells were cultured at 37 °C, 5% CO2 in RPMI medium with 10% FBS. Expression of the transgene was maintained by puromycin selection. The day before imaging, cells were seeded on 4-chambered, glass bottomed 35 mm round dish at a density of 1 x 10^5 cells per chamber. The next day, cells were washed 4x in PBS and then incubated either in RPMI + 10% FBS or RPMI alone for 4 h. Medium was then removed and replaced with Mitotracker green-FM (150 nM) diluted in Hank’s buffered salt solution. Cells were incubated in Mitotracker for 20 min and then returned to RPMI either with or without serum. Cells were then imaged in a Yokugawa CV1000 Cell Voyager live cell confocal system prior to the application of compounds. Compounds were then applied: control samples received 1% DMSO, while test samples received 4a, 6a or dynasore (final DMSO concentration of 1%). Cells were incubated for at 37 °C, 5% CO2 and then images acquired over 2 h at 6 min intervals. 6 images were taken of each test condition.

Series [2] deals with T1, recombinant rat dynamin II (Rattus norvegicus, UniProt P39052).
T1 sequence (P39052 1-870): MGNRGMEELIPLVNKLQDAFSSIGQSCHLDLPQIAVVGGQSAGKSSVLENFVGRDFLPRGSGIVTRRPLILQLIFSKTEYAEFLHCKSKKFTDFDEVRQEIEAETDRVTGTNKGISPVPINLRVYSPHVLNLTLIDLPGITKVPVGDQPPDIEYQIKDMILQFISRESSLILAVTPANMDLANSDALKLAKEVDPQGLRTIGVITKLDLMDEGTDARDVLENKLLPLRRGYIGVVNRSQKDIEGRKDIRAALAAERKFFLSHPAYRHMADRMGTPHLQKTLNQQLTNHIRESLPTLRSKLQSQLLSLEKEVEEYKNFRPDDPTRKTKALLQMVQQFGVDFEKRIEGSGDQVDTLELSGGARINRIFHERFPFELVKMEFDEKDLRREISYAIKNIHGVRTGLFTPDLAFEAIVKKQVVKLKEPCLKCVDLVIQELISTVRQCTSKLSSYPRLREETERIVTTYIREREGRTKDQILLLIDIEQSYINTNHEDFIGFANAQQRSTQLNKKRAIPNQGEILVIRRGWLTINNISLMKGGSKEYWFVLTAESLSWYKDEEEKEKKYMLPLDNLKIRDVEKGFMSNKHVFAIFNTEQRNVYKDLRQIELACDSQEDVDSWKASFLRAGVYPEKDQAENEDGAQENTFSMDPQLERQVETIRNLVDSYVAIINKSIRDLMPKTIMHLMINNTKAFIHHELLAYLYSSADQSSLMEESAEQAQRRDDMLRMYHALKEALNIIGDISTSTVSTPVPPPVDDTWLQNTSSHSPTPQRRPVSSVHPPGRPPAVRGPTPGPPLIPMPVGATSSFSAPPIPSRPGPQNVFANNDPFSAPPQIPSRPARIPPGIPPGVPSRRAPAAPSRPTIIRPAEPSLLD
Nature of the series: Dynamin II GTPase assay (PS-stimulated). In kind it is biochemical. An excerpt:
Recombinant dynamin I was used only for the data in Table 2. The dynamin antibodies were from: Dynamin I—in‐house YF2 antibodies, raised in rabbits against two different synthetic peptides: dynamin I 629‐647 ([…]) and dynamin I 765–778 ([…]), used at 1/2000 dilution, as previously described 53; Dynamin II—Santa Cruz (C‐18, sc‐6400, used at 1/1000) and Dynamin III—Santa Cruz (P‐13, sc‐69472, used at 1/500 dilution).
Assay conditions were based on the dynamin I assay but contained modifications. Recombinant dynamin II was used at 50 nM, stimulated by 10 µg/mL PS. The GTPase reaction was allowed to occur for 90 min at 37°C before termination.

Series [3] is described as follows: MTT growth inhibition assay. In kind it is cell-based. The note with it: human. How it is done: A 30 mM stock solution of each test compound was prepared in dimethylsulphoxide (DMSO) and stored at −20 °C. All cell lines were cultured at 37 °C, under 5% CO2 in air and were maintained in Dulbecco’s modified Eagle’s medium (Trace Biosciences, Australia) supplemented with 10% foetal bovine serum, 10 mM sodium bicarbonate penicillin (100 IU/mL), streptomycin (100 µg/mL), and glutamine (4 mM). Cells in logarithmic growth were transferred to 96-well plates. Cytotoxicity was determined by plating cells in duplicate in […] medium at a density of 2,500–4,000 cells/well. On day 0, (24 h after plating) when the cells were in logarithmic growth, 100 μL medium with or without the test agent was added to each well. After 72 h drug exposure, growth inhibitory effects were evaluated using the MTT (3-[4,5-dimethyltiazol-2-yl]-2,5-diphenyl-tetrazolium bromide) assay and absorbance read at 540 nm. A dose response curve was produced allowing for the calculation of a GI50 value. This value is the drug concentration at which cell growth is inhibited by 50% based on the difference between the optical density values on day 0 and those at the end of drug exposure.

The test system of a further series is Calyx of Held. The series can be described thus: Membrane capacitance measurements at the Calyx of Held in brain slices. In kind it is cell-based, mice. The note with it: for SVE (decay of membrane capacitance): direct application by puffing pipette: 300 μM 4a, 800 μM dynasore.
Setting [4] is: MCF-7 breast cancer cells, MCF-7, MTT.

Where two headings read alike, the source gives them in different places.

`O=C(N/N=C/c1cc(O)c(O)cc1O)c1cc2ccccc2cc1O` [4a, (E)-3-Hydroxy-N'-(2,4,5-trihydroxybenzylidene) -2-naphthohydrazide]: the mitochondrial morphology entry in series [1] was “did not mediate any changes in mitochondrial morphology”. The IC50 in series [2] (Absence of Tween, DynII 50 nM, no unit in table, read-out: IC50 DynII (rec)) was 2.3 ± 0.2 µM; in series [2] (Presence of Tween, DynII 50 nM, no unit in table, read-out: IC50 DynII (rec)) it was 92.3 ± 10.9 µM. Also, the GI50 at 72 h in series [3] (A431 skin cancer cells), in series [3] (BE2-C neuroblastoma cells), in series [3] (DU145 prostate cancer cells), in series [3] (H460 lung cancer cells), in series [3] (HT29 colon cancer cells) and in series [3] (setting [4]) was more than 50 µM in each case. Besides, the GI50 at 72 h in series [3] (SJ-G2 glioblastoma cells), in series [3] (SW480 colon cancer cells) and in series [3] (ovarian cancer cells) was more than 50 µM in each case. Moreover, in the series on Calyx of Held (300 μM 4a in puffing pipette), the “exocytosis (capacitance jump)” value is “did not acutely affect exocytosis”. The “SVE (decay of membrane capacitance)” value with Calyx of Held is reported as “complete blockade of SVE”.
On to `O=C(N/N=C/c1cccc(O)c1O)c1cc2ccccc2cc1O` [6a, (E)-N'-(2,3-Dihydroxybenzylidene)-3-hydroxy-2-naphthohydrazide], for which, in series [1], the mitochondrial morphology entry is “appeared to cause mitochondrial fragmentation”. The GI50 at 72 h in series [3] (A431 skin cancer cells), in series [3] (BE2-C neuroblastoma cells), in series [3] (DU145 prostate cancer cells), in series [3] (H460 lung cancer cells), in series [3] (HT29 colon cancer cells) and in series [3] (setting [4]) was more than 50 µM throughout. Further, the GI50 at 72 h in series [3] (SJ-G2 glioblastoma cells), in series [3] (SW480 colon cancer cells) and in series [3] (ovarian cancer cells) was more than 50 µM throughout.
As for `O=C(N/N=C/c1ccc(O)c(O)c1)c1cc2ccccc2cc1O` [Dynasore, (E)-N'-(3,4-Dihydroxybenzylidene)-3-hydroxy-2-naphthohydrazide], the mitochondrial morphology entry in series [1] is on record as “did not mediate any changes in mitochondrial morphology”. For the same compound, the IC50 in series [2] (detergent removed from the assay, n = 2, read-out: IC50 full-length helical dynamin II) came out at 18.1 ± 0.2 µM. Besides, the “effect on dynamin II” value in series [2] (standard assay with Tween-80, up to 1.5 mM) is recorded as “no effect”. Moreover, the GI50 at 72 h in series [3] (A431 skin cancer cells) is 14 ± 0.6 µM; in series [3] (BE2-C neuroblastoma cells) it was 8.6 ± 0.4 µM; in series [3] (DU145 prostate cancer cells), 23 ± 1.7 µM; in series [3] (H460 lung cancer cells), 21 ± 1.9 µM; in series [3] (HT29 colon cancer cells), 12 ± 1.3 µM; in series [3] (setting [4]), 14 ± 0.3 µM. In addition, the GI50 at 72 h in series [3] (SJ-G2 glioblastoma cells) was 12 ± 1.7 µM; in series [3] (SW480 colon cancer cells), 3.6 ± 0.1 µM; in series [3] (ovarian cancer cells) it was 6.7 ± 0.4 µM. Also, the “SVE (decay of membrane capacitance)” value with Calyx of Held is “inhibits SVE”.
